One data set concerns Calu-6 lung tumor. The experiment in a line: SC xenograft in mice. To be noted: nu/nu, 20 mg/kg/day, day 28. The class given is in vivo, human. How it is done: (§1) Cell lines were grown in appropriate medium (see Appendix 1). Cells were harvested at or near confluency with 0.05% Trypsin-EDTA and pelleted at 450×g for 10 min. Pellets were resuspended in sterile PBS or media (without FBS) to a particular concentration and the cells were implanted into the hindflank of mice. Tumor growth was measured over 3 to 6 weeks using venier calipers. Tumor volumes were calculated as a product of length×width×height unless otherwise indicated. P values were calculated using the Students' t-test.
On the technique in general: Xenograft models place foreign cells or tissue in a host animal.

For another data set, the system named is SF763T glioma. The experiment in a line: SC xenograft in mice. Type of data set: in vivo, human. How it is done:
as §1

Another data set concerns MCF7 mammary tumor. The experiment in a line: SC xenograft in mice. Type of data set: in vivo, human. How it is done:
as §1

The subject of the next data set is spleen cells. The experiment in a line: Normal immune function in naive mice. Type of data set: in vivo, mouse. From the text:
At the indicated times, animals were sacrificed, and the spleens were aseptically removed and placed into sterile medium. Spleens were processed into single cell suspensions by grinding between sterile frosted glass microscope slides. After a single wash to remove tissue debris, the spleen cells were resuspended in a hypotonic ammonium chloride buffer to lyse erythrocytes. Lymphocytes were washed and resuspended to the appropriate concentrations in complete medium, consisting of RPMI plus 10% heat-inactivated FBS, 2 mM glutamine, 50 μM β-mercaptoethanol, and penicillin-streptomycin. The responses of the lymphocytes were examined in the following assays according to accepted procedures (Current Protocols in Immunology. Coligan, J. E., Kruisbeek, A. M., Margulies, D. H., Shevach, E. M., Strober, W. (eds.) John Wiley and Sons, Inc., 1992).
The T-cell mitogen, ConA, and the T-cell independent B-cell mitogen, LPS, were added to 96-well round-bottom wells at the indicated concentrations. Lymphocytes from normal, vehicle-dosed, and drug-dosed animals were added at a final concentration of 2.5×10^5 /well. Cultures were usually set up in triplicate or quadruplicate. The plates were incubated at 37° C. in a humidified atmosphere containing 5% CO2 for the indicated times. Supernatants (approximately 100 μL) were carefully removed from the wells and stored at -80° C. for lymphokine and immunoglobulin analyses. To measure proliferation of the lymphocytes, 1 μCi of ^3 H-thymidine was added to each well, and the plates were incubated for 6 hr. The cultures were harvested onto glass fiber filters, and the incorporated radioactivity was quantitated by liquid scintillation counting (Betaplate, Wallac).
Lymphocytes from normal, vehicle-dosed, and drug-dosed animals were plated at 2.5×10^5 /well in round-bottom 96-well plates. Stimulator cells were then added at the same cell concentration. The stimulator cells consisted of syngeneic or allogeneic lymphocytes which had been treated with 50 μg/mL of mitomycin C for 30 min prior to the assay. The plates were incubated for 3 to 4 days, at which time supernatants were harvested and the cultures were pulsed as described for the mitogen assays.
Supernatants from mitogen and MLR cultures were assayed for IL-2 and IL-6 content by the ability to support the growth of factor-dependent cell lines. HT-2 cells (10^4 /well, IL-2-dependent) and 7TD1 cells (2×10^3 /well, IL-6-dependent) were plated in 96-well flat-bottom plates, in 50 μL/well. Supernatants were added in 50 μL/well, and the plates were incubated overnight (HT-2) or four days (7TD1). Cellular proliferation was determined in the MTT colorimetric assay (Appendix 3.1).
Flat bottom 96-well EIA plates were coated with goat anti-mouse Ig antibodies (Southern Biotechnology) overnight at 4° C. The plates were blocked by the addition of PBS+1% BSA. After washing with PBS, supernatants from murine mitogen and MLR cultures were added and incubated at room temperature for 1 hr. The plates were washed with PBS, then HRP-labeled goat anti-mouse Ig antibodies were added and incubated at room temperature for 1 hr. The plates were washed and developed by the addition of substrate (ABTS).
The animals were sacrificed and their spleen cells were assayed in vitro for responses to ConA (a T-cell mitogen), LPS (a T-cell independent B-cell mitogen), and alloantigens (C3H/HeJ spleen cells) as described in Appendix 5. The IL-2, IL-6, Ig content and cellular proliferation were measured after 48 hr (mitogens) or 72 hr (alloantigens).

The test system of the next data set is C6 cells. The experiment in a line: Soft agar assay (SAA). To be noted: Rattus norvegicus, PDGF-R expression ++. The class given is cell-based. How it is done:
(§2) After a 2 to 3 week incubation at 37° C., colonies larger than 50 μm were quantified using an Omnicon 3800 Tumor Colony counter.
(§3) PDGF-R expression was measured qualitatively using a western blot.

A further data set deals with SKOV-3T cells. The experiment in a line: Soft agar assay (SAA). Type of data set: cell-based. To be noted: Homo sapiens; PDGF-R expression ++. How it is done: as §2, §3
The test system of another data set is SF767T cells. As to the kind of experiment: Soft agar assay (SAA). Type of data set: cell-based. To be noted: Homo sapiens; PDGF-R expression ++. How it is done: as §2, §3
Another data set deals with WEHI-164.13 cells. As to the kind of experiment: CTL generation in tumor-bearing mice (MLTC). Type of data set: in vivo, mouse. Set-up: CTL activity: key to the marks not given beside the values. Conditions: 20 mg/kg/day. How it is done:
BALB/c mice received SC implants of syngeneic WEHI-164.13 fibrosarcoma cells on day 0. […] On day 17, the animals were sacrificed and their spleens were removed. The spleen cells were assayed in vitro for responses to alloantigens and mitogens.
The spleen cells were also assayed for the generation of WEHI-164.13-specific cytotoxic T-lymphocytes (CTL) in the mixed lymphocyte tumor cell culture (MLTC). Spleen cells from untreated tumor-bearing animals mounted a vigorous CTL response (44% specific lysis at E:T=50:1). This response was inhibited almost completely in animals receiving the vehicle alone (13% specific lysis). […] (Walia, et al., Proc. Soc. Exp. Biol. Med., 192:177-200, 1989.)

Data set [1] in a line: LD50 of A10 in BALB/c mice. Conditions: mouse, in vivo, ip. How it is done:
All animals wee observed for 7 to 14 days after the last dose was administered. The LD50 was calculated from a plot of % mortality versus dose (log M) using a four parameter logistic equation.

Another data set is described as follows: LD10. Conditions: in vivo.

As usually defined, the % Inhibition is how much of the control response was suppressed. The term IC50 denotes the concentration that inhibits the measured activity by half. As a reminder, the LD50 is the dose expected to kill half of the subjects tested. For the molecule `Cc1oncc1C(=O)Nc1ccc(C(F)(F)F)cc1` [Compound A10, 5-methylisoxazole-4 carboxylic acid-(4-trifluromethyl)-anilide], the “% Inhibition” value is 64% in the data set on Calu-6 lung tumor; 89% with SF763T glioma (20 mg/kg); 85% in the data set on SF763T glioma (nu/nu, 20 mg/kg/day, day 22); 8% with MCF7 mammary tumor (SCID, 15 mg/kg/day, day 27, treatment from day 8). In addition, in the data set with SF763T glioma (xenografted athymic mice), the “In Vivo inhibition” value turned out to be 89%. Besides, in the data set with MCF7 mammary tumor (12 to 20 mg/kg/day), the “growth of xenograft” value is “failed to significantly inhibit the growth”. For the same molecule, the 3H-thymidine uptake with spleen cells (Allo, d7, vs vehicle) came to 0; with spleen cells (Allo, d21, vs vehicle) it was 0; with spleen cells (ConA, d7, vs vehicle) it was 0; with spleen cells (ConA, d21, vs vehicle), 0; with spleen cells (LPS, d7, vs vehicle), 0; in the data set on spleen cells (LPS, d21, vs vehicle), 0. In addition, the IL-2 production is reported as 0 in the data set with spleen cells (Allo, d7, vs vehicle); 0 in the data set on spleen cells (Allo, d21, vs vehicle); 0 in the data set on spleen cells (ConA, d7, vs vehicle); 0 in the data set with spleen cells (ConA, d21, vs vehicle); 0 in the data set with spleen cells (LPS, d7, vs vehicle); 0 with spleen cells (LPS, d21, vs vehicle). Further, the IL-6 production with spleen cells (Allo, d7, vs vehicle) was 0; in the data set on spleen cells (Allo, d21, vs vehicle), 0; with spleen cells (ConA, d7, vs vehicle) it was “++”; with spleen cells (ConA, d21, vs vehicle), 0; in the data set on spleen cells (LPS, d7, vs vehicle), 0; in the data set on spleen cells (LPS, d21, vs vehicle), 0. In addition, the Ig production is 0 in the data set on spleen cells (Allo, d7, vs vehicle); 0 with spleen cells (Allo, d21, vs vehicle); 0 in the data set on spleen cells (ConA, d7, vs vehicle); 0 with spleen cells (ConA, d21, vs vehicle); “+” in the data set with spleen cells (LPS, d7, vs vehicle); “+/-” in the data set on spleen cells (LPS, d21, vs vehicle). The IC50 with C6 cells was 400 nM; in the data set on SKOV-3T cells, 300 nM; with SF767T cells, 500 to 2000 nM. Also, the “CTL response, specific lysis” value in the data set with WEHI-164.13 cells (vehicle 13%, untreated 44%) is given as 78%. The CTL activity result with WEHI-164.13 cells (Tumor stimulus) is on record as “++”. For the same molecule, the LD50 in data set [1] was 94 mg/kg.
On to `c1ccc(-c2cnc3cc4ccccc4cc3n2)cc1` [Compound G22], for which the LD10 in the data set “LD10” came out at 25 mg/kg.
